Data: ChEMBL document CHEMBL2094269, “WEHI/Eskitis Trypanosoma b. brucei screening data”

How the values were obtained:
[1] = test system: Trypanosoma brucei brucei; experiment: microbe, parasite or virus in culture; type: functional, organism-based, STIB 795
Description: DNDI: Inhibition of Human African Trypanosomiasis (HAT), STIB 795, in vitro

[2] = DNDI: Cytotoxicity against human MRC-5 lung fibroblast cells.; settings: IC50

IC50 ([1]; Trypanosoma brucei, STIB 795) [µM] | IC50 [1] [µM] | SMILES | IC50 [2] [µM]
5.58 | – | COc1ccc2c(C)cc(Sc3cccc4cccnc34)nc2c1 | > 41.7
10.9 | – | O=C(N/N=C\c1cc(Cl)ccc1O)c1cccs1 | > 41.7
0.408 | – | CCN1/C(=C\C=C/C2C=Cc3ccccc3N2CC)C=Cc2ccccc21 (stereo unspecified) | 5.14
5.28 | – | C=CC[n+]1ccc(/C=C/c2ccccc2O)c2ccccc21 | > 41.7
0.791 | – | O=C(CS(=O)(=O)c1ccc(F)cc1)Nc1nc(-c2ccccn2)cs1 | > 10.4
0.317 | – | CCN1C(C)=C(C)S/C1=C\c1ccc2cc(C)ccc2[n+]1C | > 4.17
2.62 | – | CC1CCc2nc(SC3CC(=O)C4OCC3O4)nc(C(F)(F)F)c2C1 (stereo unspecified) | > 20.8
3.39 | 4.51 | CC(C)(C)c1cc(C(c2ccccc2O)N2CCCCC2)cc(C(C)(C)C)c1O (stereo unspecified) | > 41.7
0.425 | – | CCn1ccnc1-c1cccc(-c2ccccn2)n1 | > 1.04
3.47 | – | CN1c2ccccc2N(C)C1c1ccc(O)cc1 | > 41.7
0.494 | – | CCc1nnc(NC(=O)c2cc3ccc4ccc(C)nc4c3[nH]2)s1 | > 41.7
5.72 | – | Cc1cccc2c1NC(=O)C2(c1ccc(O)cc1)c1ccc(O)cc1 | > 20.8
1.49 | – | NCCc1c(-c2ccccc2)n(-c2ccccc2)c2ccccc12 | > 20.8
≤ 10.4 | – | Cc1c(Br)c(C(=O)N/N=C/c2c(O)ccc3ccccc23)nn1C | > 20.8
5.07 | – | CN1CCN(Cc2cc(Br)c3cccnc3c2O)CC1 | > 4.17
< 0.004 | – | Cc1cccc2ccc(/C=C/c3ccc(N(C)C)cc3)[n+](C)c12 | > 4.17
5.66 | – | CCC1=C(C)c2cc3nc(C(=O)OCc4ccccc4)c(C)c-3c(C)n2C1C (stereo unspecified) | > 41.7
4.87 | – | C/C(Cl)=C\CN1C(=O)C(=O)c2cc(Cl)ccc21 | > 41.7

IC50 ([1]; Trypanosoma brucei, STIB 795) [µM] | IC50 [1] [µM] | SMILES | IC50 [2] [µM]
4.7 | – | CNCCCC1Sc2ccccc2Oc2ccccc21 (stereo unspecified) | > 41.7
0.989 | – | CN(C)C(=S)N/N=C1\Cc2ccccc2C1=O | > 20.8
0.924 | – | CC(=O)NC(c1cccs1)c1ccc2cccnc2c1O (stereo unspecified) | 0.984
0.662 | – | CCCOc1cccc(C(=O)Nc2cccc(-c3nc4ncccc4o3)c2C)c1 | > 4.17
1.6 | – | O=C1/C(=C\c2ccccc2F)COC/C1=C\c1ccccc1F | > 41.7
5.58 | – | CC(C)C1N=C(c2ccc3c(c2)OCO3)CC(c2cc(Cl)ccc2O)N1 (stereo unspecified) | > 41.7
1.15 | – | CC(=O)NC1=C(Br)C(=O)c2cccc(NC(C)=O)c2C1=O | 7.49
5.22 | – | CCc1cc(Sc2ccccc2NC(=O)C2CCCCC2)n2nc(C)nc2n1 | > 41.7
2.51 | – | C[N+](C)(C)c1nc(N2CCOCC2)nc(N(c2ccccc2)c2ccccc2)n1 | > 41.7
5.48 | 5.31 | N=c1n(Cc2ccccc2)c2ccccc2n1CC(O)c1ccc(Cl)cc1 (stereo unspecified) | > 20.8
3.62 | – | CCN(CC)c1ccc(/C=N\NC(=O)Cc2cccn2C)c(O)c1 | > 4.17
5.21 | – | Cc1ccc([N+]2=C3SCCCN3C(O)(c3ccc(Cl)cc3Cl)C2)cc1 (stereo unspecified) | > 4.17
3.26 | – | Oc1c(C(Nc2ccccn2)c2ccc(C(F)(F)F)cc2)ccc2cccnc12 (stereo unspecified) | > 41.7
5.55 | – | CCOc1cc2c(cc1OCC)C(c1ccc(Br)cc1)NCC2 (stereo unspecified) | > 41.7
5.5 | – | CCOC(=O)C(=Cc1cc(=O)c(OC)co1)C(=O)OCC | > 20.8
5.16 | – | C/C(=N\NC(=O)c1ccc(Cl)c(Cl)c1)c1ccccn1 | > 41.7
5.46 | – | CC(C)NCC(O)COc1cccc2c(=O)c3ccccc3sc12 (stereo unspecified) | > 20.8

SMILES | IC50 ([1]; Trypanosoma brucei, STIB 795) [µM] | IC50 [1] [µM] | IC50 [2] [µM]
COc1ccc(CNCCc2c[nH]c3ccccc23)c(OC)c1C | 5.26 | – | > 20.8
Cc1ccccc1C(O)(Cc1ccccc1)C1CN2CCC1CC2 (stereo unspecified) | 4.69 | – | > 4.17
